Test results taken from US20230365546A1, “5-SUBSTITUTED INDOLE 3-AMIDE DERIVATIVES, PREPARATION METHOD AND USE THEREOF” (ORIGIANT PHARMACEUTICAL CO., LTD, priority 2020, published 2023).

Columns and labels:
[1] = target: NEK1(h) (Homo sapiens (Human), UniProt Q96PY6); assay: Kinase Profiler 10 μM panel
Description: In vitro kinase assays were conducted using Kinase Profiler services provided by Eurofins. The experimental method was as follows: the small molecule compound to be tested (0.001-10 μM), the protein kinase to be tested were incubated with a buffer containing substrate, 10 mM magnesium acetate, and [γ-^33P-ATP], the reaction was started by adding Mg\TPmix, after incubation for a period of time at room temperature, a 3% phosphate solution was added to the buffer to stop the reaction. Subsequently, 10 μL of the reaction mixture was quantitatively pipetted onto P30 filter paper, which was washed three times with 75 mM phosphate solution and then once with methanol. The P30 filter paper was air-dried and scintillation fluid was added for scintillation counting.

[2] = target: hERG potassium channel (Homo sapiens (Human), UniProt Q12809); assay: cell-based
Description: Stable HEK-hERG cells were washed with DPBS, digested with Trypsin or Tryple solution, resuspended in culture medium, and stored in centrifuge tubes for use.
hERG currents were recorded with a whole-cell patch clamp technique. The cell suspension was placed in a small petri dish and placed on an objective table of an inverted microscope. After attachment, the cells were perfused with extracellular fluid at a recommended flow rate of 1-2 mL/min. The glass microelectrode was pulled in two steps by a microelectrode puller, and the resistance in electrode fill solution was 2-5 MΩ.
After establishing the whole-cell recording mode, the clamping potential was kept at −80 mV. […] This set of pulses was repeated every 15 seconds throughout the experiment.
After the current was stable, continuous extracellular perfusion administration was conducted from low concentration to high concentration. The perfusion was continued from a low concentration until the pharmaceutical effect was stable, and then the perfusion of the next concentration was conducted.
if it was unstable, this concentration data would not be taken.
IC50 values were obtained by fitting the Hill equation (if applicable): […]

[3] = test system: RIPK1 autophosphorylation, phosphorylation of RIPK3 and MLKL; assay: Regulation of RIPK1 signaling pathway (Western blot); assay type: cell-based; conditions: TNF α/Smac mimetic/Z-VAD-FMK induced, FIG. 4
From the text: TNF α was purchased from PeproTech Inc., Smac mimetic and Z-VAD-FMK was purchased from Selleck Inc., RIPA lysis buffer was purchased from Beyotime Institute of Biotechnology, cocktail was purchased from MedChemExpress (MCE) Limited, PMSF protease inhibitors, sodium dodecylsulfonate SDS, and glycine were purchased from Sigma Inc., acrylamide, tris(hydroxymethyl)aminomethane Tris, ammonium persulfate APS and N,N,N′,N′-tetramethyl ethylenediamine TEMED were purchased from Wuhan Servicebio Technology Co., Ltd.
Extraction of total cellular protein: after the cells were treated by adding the corresponding concentration of Compounds 94 and 46 or blank vehicle to the cell supernatant and induced with TNF α/Smac mimetic/Z-VAD-FMK combination for a certain period of time, the supernatant was discarded, followed by washing three times with pre-cooled PBS or normal saline, then an appropriate volume of RIPA lysis buffer (containing 1% cocktail and 1% PMSF protease inhibitor) was added, the mixture was immediately placed on ice horizontally for lysis of 15 min, then the cell lysis buffer was scraped with a scraper and transferred to a 1.5 ml EP tube, and the cells were disrupted with a sonicator. The tubes were then centrifuged in a low temperature high speed centrifuge (12000 rpm, 15 min) to remove cell debris. […]

[4] = test system: DSS-induced colitis; assay: DSS-induced mouse IBD model
Description: Female C57BL/6 mice weighing 17-20 g were used. […] Fresh DSS solution was changed on Days 2, 4, and 6, respectively. […] The Control group was given normal drinking water daily and corresponding vehicles orally starting on day 7. Body weights and survival rates of mice were recorded daily. Survival curves were fitted using Graphpad Prism 5.0 software. Mice (2/group) were sacrificed on day 12 and observed for changes in colon length.

[5] = test system: TNF α-induced SIRS; assay: TNF α-induced mouse SIRS model; assay type: in vivo
Description: TNF α formulated in sterile normal saline was administered at a dose of 500 μg/kg by tail vein injection for modeling. The body temperature of the mice was measured by an infrared electric thermometer. The orally-administrated vehicle was 25% castor oil in ethanol and 75% normal saline. Compounds 94 and 46 and RIPK1 positive compound GSK2982772 were administered orally before modeling with a dose of 40 mg/kg. Body temperature and the survival of mice were recorded every hour and recorded for 24 h and 48 h after 11 h.
This experiment established a TNF α-induced SIRS mouse model to evaluate the in vivo activity of compounds of the present invention. TNF α formulated in sterile normal saline was administered to mice at a dose of 500 μg/kg by tail vein injection for modeling. Since the measurement of rectal temperature would cause mechanical injury to mice and may interfere with the experimental results, an infrared electric thermometer was used to measure the body temperature of mice and the survival condition was observed. Compounds 94 and 46 were administered at a dose of 40 mg/kg once prior to modeling. The Vehicle group was given the corresponding vehicle control.

hERG potassium channel, sequence (Q12809 whole entry): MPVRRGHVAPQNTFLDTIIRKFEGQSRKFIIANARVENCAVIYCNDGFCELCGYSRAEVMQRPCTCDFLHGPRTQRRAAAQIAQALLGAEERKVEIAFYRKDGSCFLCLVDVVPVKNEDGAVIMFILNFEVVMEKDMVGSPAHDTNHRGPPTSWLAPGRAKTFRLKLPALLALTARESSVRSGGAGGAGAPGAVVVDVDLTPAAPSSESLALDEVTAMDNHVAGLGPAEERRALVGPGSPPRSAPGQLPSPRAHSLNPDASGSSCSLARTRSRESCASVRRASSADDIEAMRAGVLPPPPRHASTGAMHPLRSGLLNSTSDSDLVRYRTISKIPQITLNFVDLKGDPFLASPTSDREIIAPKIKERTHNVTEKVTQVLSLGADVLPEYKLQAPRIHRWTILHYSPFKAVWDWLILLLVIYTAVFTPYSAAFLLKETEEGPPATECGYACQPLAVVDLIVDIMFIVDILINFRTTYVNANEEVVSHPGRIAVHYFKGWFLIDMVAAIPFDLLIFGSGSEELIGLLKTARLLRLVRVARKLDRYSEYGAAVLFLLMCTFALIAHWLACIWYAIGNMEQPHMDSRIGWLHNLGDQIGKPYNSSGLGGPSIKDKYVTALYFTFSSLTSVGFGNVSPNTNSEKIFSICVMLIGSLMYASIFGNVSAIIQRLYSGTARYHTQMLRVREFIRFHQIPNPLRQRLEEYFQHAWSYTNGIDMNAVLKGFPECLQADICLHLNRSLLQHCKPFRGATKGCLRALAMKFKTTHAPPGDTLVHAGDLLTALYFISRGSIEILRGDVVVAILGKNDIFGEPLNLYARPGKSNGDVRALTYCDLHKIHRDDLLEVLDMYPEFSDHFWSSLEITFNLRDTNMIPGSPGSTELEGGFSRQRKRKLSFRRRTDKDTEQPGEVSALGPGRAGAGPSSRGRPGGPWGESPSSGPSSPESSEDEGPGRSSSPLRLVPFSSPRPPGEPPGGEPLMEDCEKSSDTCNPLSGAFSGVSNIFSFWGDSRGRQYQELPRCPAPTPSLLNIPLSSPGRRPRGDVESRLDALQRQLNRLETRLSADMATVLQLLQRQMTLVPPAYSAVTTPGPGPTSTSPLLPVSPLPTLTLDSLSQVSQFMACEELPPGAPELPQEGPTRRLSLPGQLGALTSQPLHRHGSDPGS
NEK1(h), sequence (Q96PY6 whole entry): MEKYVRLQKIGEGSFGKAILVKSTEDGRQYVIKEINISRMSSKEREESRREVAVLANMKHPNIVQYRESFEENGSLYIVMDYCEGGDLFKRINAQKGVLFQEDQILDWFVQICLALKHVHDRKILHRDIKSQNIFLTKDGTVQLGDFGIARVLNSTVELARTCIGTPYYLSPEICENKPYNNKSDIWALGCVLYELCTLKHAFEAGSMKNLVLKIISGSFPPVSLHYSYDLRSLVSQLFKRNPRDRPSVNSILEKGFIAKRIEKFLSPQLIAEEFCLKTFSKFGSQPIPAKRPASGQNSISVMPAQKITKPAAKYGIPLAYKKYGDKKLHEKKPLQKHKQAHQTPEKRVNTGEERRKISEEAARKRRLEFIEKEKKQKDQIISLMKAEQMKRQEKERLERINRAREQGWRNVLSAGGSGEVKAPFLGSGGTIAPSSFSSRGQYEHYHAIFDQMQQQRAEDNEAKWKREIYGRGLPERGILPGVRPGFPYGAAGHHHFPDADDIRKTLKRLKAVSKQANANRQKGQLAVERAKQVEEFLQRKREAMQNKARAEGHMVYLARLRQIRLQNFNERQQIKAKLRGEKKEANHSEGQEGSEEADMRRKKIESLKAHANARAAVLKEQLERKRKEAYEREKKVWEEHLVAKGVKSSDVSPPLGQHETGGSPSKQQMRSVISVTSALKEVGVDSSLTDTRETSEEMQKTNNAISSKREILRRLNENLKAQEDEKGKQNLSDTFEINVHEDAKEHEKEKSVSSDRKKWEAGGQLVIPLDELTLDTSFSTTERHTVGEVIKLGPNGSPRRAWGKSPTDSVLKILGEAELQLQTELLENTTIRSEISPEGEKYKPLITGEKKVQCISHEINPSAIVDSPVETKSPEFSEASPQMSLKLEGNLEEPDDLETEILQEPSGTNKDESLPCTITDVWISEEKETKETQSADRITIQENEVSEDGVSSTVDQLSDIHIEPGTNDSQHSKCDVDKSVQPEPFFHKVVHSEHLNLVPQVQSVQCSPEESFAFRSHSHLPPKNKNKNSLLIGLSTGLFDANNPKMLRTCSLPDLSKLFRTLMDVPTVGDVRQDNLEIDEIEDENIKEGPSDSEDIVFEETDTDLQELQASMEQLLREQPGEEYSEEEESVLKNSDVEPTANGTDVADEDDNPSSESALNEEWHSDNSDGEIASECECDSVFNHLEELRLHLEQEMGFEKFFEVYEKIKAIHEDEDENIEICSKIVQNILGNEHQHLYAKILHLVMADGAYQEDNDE

SMILES	Inhibition ratio [1] [%]	IC50 [2] [µM]	Average inhibitory ratio on hERG potassium channel current ([2]; human, 30 μM) [%]	Inhibition ratio/% [1] [%]	Effect on necrotic signaling pathway (RIPK1 autophosphorylation, RIPK3 and MLKL phosphorylation) [3]	Death of mice ([4]; 40 mg/kg oral from day 7 after 2.5% DSS)	Body weight of mice ([4]; 40 mg/kg oral from day 7 after 2.5% DSS, FIG. 6)	Colon length of mice ([4]; 40 mg/kg oral, sacrificed on day 12, FIG. 7)	Therapeutic effect compared with positive drug ([4]; 40 mg/kg oral, vs GSK3145095 40 mg/kg)	Overall mortality ([5]; 40 mg/kg oral once before TNF α 500 μg/kg i.v., compared with Vehicle group)	Body temperature of mice ([5]; 40 mg/kg oral once before TNF α 500 μg/kg i.v., within 11 h)	Protective effect compared with positive drug ([5]; 40 mg/kg oral, vs GSK2982772 40 mg/kg)
C[C@H](NC(=O)c1c[nH]c2ccc(-c3ccc4nc(NC(=O)C5CC5)sc4c3)cc12)c1cccc(F)c1 [Compound 34, (S)-5-(2-(cyclopropanecarboxamido)benzo[d]thiazol-6-yl)-N-(1-(3-fluorophenyl)ethyl)-1H-indole-3-carboxamide]	18	–	–	–	–	–	–	–	–	–	–	–
C[C@H](NC(=O)c1cn(C)c2ccc(-c3ccn4nc(NC(=O)C5CC5)nc4c3)cc12)c1cccc(F)c1 [Compound 94, (S)-5-(2-(cyclopropanecarboxamido)-[1,2,4]triazolo[1,5-a]pyridin-7-yl)-N-(1-(3-fluorophenyl)ethyl)-1-methyl-1H-indole-3-carboxamide]	–	> 30	3.40	50	affected the phosphorylation of RIPK3 and MLKL downstream of RIPK1 by inhibiting its autophosphorylation	no death by 14 days	gradual increase in body weight	basically equivalent to that of mice in Control group	better therapeutic effect than positive drug GSK3145095	significantly reduced	relatively normal	better protective effect than positive drug GSK2982772
